Results from ChEMBL document CHEMBL4831530, “Exploring Marine-Derived Ascochlorins as Novel Human Dihydroorotate Dehydrogenase Inhibitors for Treatment of Triple-Negative Breast Cancer” (J Med Chem, 2021).
Active and inactive are the calls of the source. The rule behind the calls is not given here.

Columns and labels:
MDA-MB-231 [1] = test: Cytotoxicity against human MDA-MB-231 cells assessed as reduction in cell viability incubated for 24 hrs by CellTiter-Glo luminescent assay; type: functional, cell-based
MDA-MB-468 [2] = test: Cytotoxicity against human MDA-MB-468 cells assessed as reduction in cell viability incubated for 24 hrs by CellTiter-Glo luminescent assay; type: functional, cell-based
[3] = target: Dihydroorotate dehydrogenase (quinone), mitochondrial (Homo sapiens, UniProt Q02127); test: Inhibition of recombinant N-terminal His-tagged human DHODH (31 to 395 residues) expressed in Escherichia coli using DL-dihydroorotic acid as substrate and Q0 as coenzyme by DCIP based assay
Sequence of Dihydroorotate dehydrogenase (quinone), mitochondrial (Q02127 whole entry, the tested form may be a part): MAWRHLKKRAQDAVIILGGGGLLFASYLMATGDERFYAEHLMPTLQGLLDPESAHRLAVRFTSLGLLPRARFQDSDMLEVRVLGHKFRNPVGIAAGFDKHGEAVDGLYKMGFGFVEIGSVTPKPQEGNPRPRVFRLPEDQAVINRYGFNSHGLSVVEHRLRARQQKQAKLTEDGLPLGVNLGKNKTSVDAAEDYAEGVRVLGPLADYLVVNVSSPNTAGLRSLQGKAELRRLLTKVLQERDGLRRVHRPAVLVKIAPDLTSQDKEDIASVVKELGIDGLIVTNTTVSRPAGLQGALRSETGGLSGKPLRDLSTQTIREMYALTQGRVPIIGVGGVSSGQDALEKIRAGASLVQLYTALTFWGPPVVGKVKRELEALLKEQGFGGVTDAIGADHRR

Breast cancer cell line = test: Antitumor activity against patient-derived breast cancer cells xenografted in NOD/SCID mouse assessed as tumor growth suppression at 20 mg/kg, ip administered every 2 days and measured after 21 days; type: functional, organism-based; conditions: Homo sapiens, time 21.0 day
MDA-MB-231 [4] = test: Induction of apoptosis in human MDA-MB-231 cells assessed as increase in apoptotic cells incubated for 2 days by annexin-V/FITC propidium iodide staining based flow cytometry analysis; type: functional, cell-based; conditions: time 2.0 day
MDA-MB-468 [5] = test: Induction of apoptosis in human MDA-MB-468 cells assessed as increase in apoptotic cells incubated for 2 days by annexin-V/FITC propidium iodide staining based flow cytometry analysis; type: functional, cell-based; conditions: time 2.0 day
MDA-MB-231 [6] = test: Inhibition of cell proliferation in human MDA-MB-231 cells at <=10 uM incubated for 4 days in presence of uridine by CellTiter-Glo luminescent assay; type: functional, cell-based; conditions: dose microM <=10, time 4.0 day
MDA-MB-468 [7] = test: Inhibition of cell proliferation in human MDA-MB-468 cells at <=10 uM incubated for 4 days in presence of uridine by CellTiter-Glo luminescent assay; type: functional, cell-based; conditions: dose microM <=10, time 4.0 day
[8] = Toxicity in NOD/SCID mouse xenografted with patient-derived breast cancer cells assessed as effect on body weight loss at 15 to 60 mg/kg, ip administered 5 times a week and measured after 21 days; type: organism-based; conditions: in vivo, 504 h, dose 15-60 mg/kg, time 21 day
[9] = Toxicity in NOD/SCID mouse xenografted with patient-derived breast cancer cells assessed as effect on organ damage at 15 to 60 mg/kg, ip administered 5 times a week and measured after 21 days by hematoxylin and eosin staining based analysis; type: organism-based; conditions: in vivo, 504 h, dose 15-60 mg/kg, time 21 day
LNCaP C4-2B = test: Cytotoxicity against human LNCaP C4-2B cells assessed as reduction in cell viability incubated for 24 hrs by CellTiter-Glo luminescent assay; type: functional, cell-based
143B = test: Cytotoxicity against human 143B cells assessed as reduction in cell viability incubated for 24 hrs by CellTiter-Glo luminescent assay; type: functional, cell-based
HL-60 = test: Cytotoxicity against human HL-60 cells assessed as reduction in cell viability incubated for 24 hrs by CellTiter-Glo luminescent assay; type: functional, cell-based
MDA-MB-231 [10] = test: Induction of apoptosis in human MDA-MB-231 cells assessed as increase in cleaved PARP1 level measured after 2 days by Western blot analysis; type: functional, cell-based; conditions: dose 0.5-2 µM, time 2.0 day
MDA-MB-468 [11] = test: Induction of apoptosis in human MDA-MB-468 cells assessed as increase in cleaved PARP1 level measured after 2 days by Western blot analysis; type: functional, cell-based; conditions: dose 0.5-2 µM, time 2.0 day
MDA-MB-231 [12] = test: Induction of apoptosis in human MDA-MB-231 cells assessed as increase in cleaved caspase7 level measured after 2 days by Western blot analysis; type: functional, cell-based; conditions: dose 0.5-2 µM, time 2.0 day
MDA-MB-468 [13] = test: Induction of apoptosis in human MDA-MB-468 cells assessed as increase in cleaved caspase7 level measured after 2 days by Western blot analysis; type: functional, cell-based; conditions: dose 0.5-2 µM, time 2.0 day
[14] = Antitumor activity against patient-derived breast cancer cells xenografted in NOD/SCID mouse assessed as tumor growth suppression at 5 mg/kg, ip administered 5 times a week and measured after 16 days relative to control; type: functional; conditions: Homo sapiens, Breast cancer cell line, 384 h, time 16 day
[15] = Antitumor activity against patient-derived breast cancer cells xenografted in NOD/SCID mouse assessed as reduction in tumor volume at 5 mg/kg, ip administered 5 times a week and measured after 16 days relative to control; type: functional, Homo sapiens, Breast cancer cell line; parameters: scale not given: the % may be the effect or the level left; conditions: time 16 day
[16] = Toxicity in NOD/SCID mouse xenografted with patient-derived breast cancer cells assessed as effect on body weight loss at 5 mg/kg, ip administered 5 times a week and measured after 16 days; type: organism-based; conditions: in vivo, 384 h, time 16 day
[17] = Toxicity in NOD/SCID mouse xenografted with patient-derived breast cancer cells assessed as effect on organ damage at 5 mg/kg, ip administered 5 times a week and measured after 16 days by hematoxylin and eosin staining based analysis; type: organism-based; conditions: in vivo, 384 h, time 16 day
[18] = Toxicity in NOD/SCID mouse xenografted with patient-derived breast cancer cells assessed as body weight loss at 2.5 to 10 mg/kg, ip administered 5 times a week and measured after 16 days; type: organism-based; conditions: in vivo, 384 h, dose 2.5-10 mg/kg, time 16 day
[19] = Toxicity in NOD/SCID mouse xenografted with patient-derived breast cancer cells assessed as liver injury at 2.5 to 10 mg/kg, ip administered 5 times a week and measured after 16 days by hematoxylin and eosin staining based analysis; type: organism-based; conditions: in vivo, 384 h, dose 2.5-10 mg/kg, time 16 day

SMILES | IC50 (MDA-MB-231 [1]; Homo sapiens, MDA-MB-231, 24 h) [µM] | IC50 (MDA-MB-468 [2]; Homo sapiens, MDA-MB-468, 24 h) [µM] | IC50 [3] [µM] | other results
C/C(=C\Cc1c(O)c(Cl)c(C)c(C=O)c1O)CC[C@@]1(C)[C@H](C)CCC(=O)[C@@H]1C [ILICICOLIN C] | 34 | 13 | 1.9 | 
Cc1c(Cl)c2c(c(O)c1C=O)C[C@H]([C@@](C)(O)/C=C/[C@@]1(C)[C@H](C)CCC(=O)[C@@H]1C)O2 | 25 | 26 | > 60 | 
C/C(=C\Cc1c(O)cc(C)c(C=O)c1O)CC[C@@]1(C)[C@H](C)CCC(=O)[C@@H]1C [ILICICOLIN F] | 26 | 27 | 11 | 
CC(/C=C/[C@@]1(C)[C@H](C)CCC(=O)[C@@H]1C)=C\Cc1c(O)c(Cl)c(C)c(C=O)c1O [ASCOCHLORIN] | 2.2 | 1.1 | 1.3 | 
O=c1[nH]cc(F)c(=O)[nH]1 [FLUOROURACIL] | 15 | > 20 |  | 
Cc1c(Cl)c(O)c(C[C@@H]2[C@@]3(C)CC[C@H](O)C(C)(C)[C@@H]3CC[C@@]2(C)O)c(O)c1C=O | > 60 | > 60 | 31 | 
C/C(=C\C[C@@]1(C)[C@H](C)CCC(=O)[C@@H]1C)[C@@H](O)Cc1c(O)c(Cl)c(C)c(C=O)c1O | 41 | 15 | 4.7 | 
C/C(=C\Cc1c(O)c(Cl)c(C)c(C=O)c1O)[C@H](O)C[C@@]1(C)[C@H](C)CCC(=O)[C@@H]1C | 38 | 45 | 6.5 | 
C/C(O)=C(\C#N)C(=O)Nc1ccc(C(F)(F)F)cc1 [TERIFLUNOMIDE] | 14 | > 20 |  | inhibition (Breast cancer cell line): Active
CC(/C=C/[C@@]1(C)[C@H](C)CC[C@@H](O)[C@@H]1C)=C\Cc1c(O)c(Cl)c(C)c(C=O)c1O | > 60 | > 60 | 13 | 
C/C(=C\Cc1c(O)c(Cl)c(C)c(C=O)c1O)CC/C=C(\C)CC[C@@H]1OC1(C)C | 24 | 16 | 1.6 | 
C/C(=C\Cc1c(O)c(Cl)c(C)c(C=O)c1O)CC/C=C(\C)[C@@H]1CC(=O)C(C)(C)O1 [ASCOFURANONE] | 5.2 | 7.1 | 5.4 | 
C/C(=C\Cc1c(O)c(Cl)c(C)c(C=O)c1O)CC/C=C(\C)CCC(=O)C(C)(C)O | > 60 | > 60 | 9.3 | 
C/C(=C\Cc1c(O)c(Cl)c(C)c(C=O)c1O)CC/C=C(\C)[C@@H]1C[C@H](O)C(C)(C)O1 | 12 | 11 | 0.72 | 
C/C(=C\Cc1c(O)cc(C)c(C=O)c1O)CC/C=C(\C)CC[C@H](O)C(C)(C)O | > 60 | 29 | 5 | 
C=C(/C=C/[C@@]1(C)[C@H](C)CCC(=O)[C@@H]1C)[C@H](O)Cc1c(O)c(Cl)c(C)c(C=O)c1O | 45 | 34 | 3.9 | 
C/C(=C\Cc1c(O)cc(C)c(C=O)c1O)CC/C=C(\C)CCC(=O)C(C)(C)O | > 60 | 57 | 7.9 | 
C/C(=C\Cc1c(O)c(Cl)c(C)c(C=O)c1O)CC/C(C)=C(\C)C(C)CCCO (stereo not given) | 12 | 7.5 | 32 | 
CC(=O)O[C@@H](CC/C(C)=C/CC/C(C)=C/Cc1c(O)c(Cl)c(C)c(C=O)c1O)C(C)(C)O | 7.4 | 6 | 30 | Activity (MDA-MB-231 [4]): Dose-Dependent Effect; Activity (MDA-MB-468 [5]): Dose-Dependent Effect; inhibition (MDA-MB-231 [6]): inactive; inhibition (MDA-MB-468 [7]): inactive; Activity [8]: Non-Toxic; Activity [9]: Non-Toxic
C=C1CC[C@H](O)C(C)(C)[C@@H]1CC/C(C)=C/Cc1c(O)c(Cl)c(C)c(C=O)c1O | 0.65 | 0.48 | 0.074 | Activity (LNCaP C4-2B): Dose-Dependent Effect; Activity (143B): Dose-Dependent Effect; Activity (HL-60): Dose-Dependent Effect; Activity (MDA-MB-231 [4]): Dose-Dependent Effect; Activity (MDA-MB-468 [5]): Dose-Dependent Effect; Activity (MDA-MB-231 [10]): Dose-Dependent Effect; Activity (MDA-MB-468 [11]): Dose-Dependent Effect; Activity (MDA-MB-231 [12]): Dose-Dependent Effect; Activity (MDA-MB-468 [13]): Dose-Dependent Effect; inhibition (MDA-MB-231 [6]): inactive; inhibition (MDA-MB-468 [7]): inactive; inhibition in vivo at 5 mg/kg [14]: 51.7%; Activity [15]: 37.41%; Activity [16]: Non-Toxic; Activity [17]: Non-Toxic
CC(/C=C/[C@@]1(C)[C@H](C)CCC(=O)[C@@H]1C)=C\Cc1c(O)cc(C)c(C=O)c1O | > 60 | 38 | 42 | 
C=C(C)[C@@H](O)CC/C(C)=C/CC/C(C)=C/Cc1c(O)c(Cl)c(C)c(C=O)c1O | 3.3 | 1.7 | 0.39 | 
C=C1CCC(=O)C(C)(C)[C@@H]1CC/C(C)=C/Cc1c(O)c(Cl)c(C)c(C(=O)O)c1O | > 60 | > 60 | 15 | 
C/C(=C\Cc1c(O)c(Cl)c(C)c(C=O)c1O)CC[C@H]1C(C)(C)C(=O)CC[C@@]1(C)O | > 60 | > 60 | 11 | 
C/C(=C\Cc1c(O)c(Cl)c(C)c(C=O)c1O)CC/C=C(\C)CC[C@H](O)C(C)(C)O | 23 | 20 | 3.7 | 
Cc1c(-c2ccc(-c3ccccc3F)cc2)nc2ccc(F)cc2c1C(=O)O [BREQUINAR] |  |  |  | IC50 (MDA-MB-231 [1]; mda-mb-231): 0.31 µM; IC50 (MDA-MB-468 [2]; mda-mb-468): 0.082 µM; Activity [18]: Toxic; Activity [19]: Toxic
C/C(=C\Cc1c(O)c(Cl)c(C)c(C=O)c1O)CC[C@H]1C(C)(C)C(=O)CC[C@]1(C)O | > 60 | > 60 | 34 | 
C/C(=C\Cc1c(O)c(Cl)c(C)c(C(=O)O)c1O)CC/C=C(\C)CC[C@H](O)C(C)(C)O | > 60 | 49 | 20 | 
